For assay [1], the target named is EGFR (human) (UniProt P00533). The settings on record: HN5.
The target of assay [2] is EGFR (human) (UniProt P00533). As to conditions: hn5.
Assay [3] has as its target EGFR (human) (UniProt P00533). The settings on record: a431.
Assay [4] deals with EGFR (human) (UniProt P00533). As to conditions: siha.
For assay [5], the target named is EGFR (human) (UniProt P00533). The settings on record: caski.

The term IC50 denotes the concentration needed to halve the response being measured.

“And” between values parts separate entries of the source, which are not always exact repeats. Identical values can stand only once.

EGFR (human), sequence (P00533 whole entry, looked up): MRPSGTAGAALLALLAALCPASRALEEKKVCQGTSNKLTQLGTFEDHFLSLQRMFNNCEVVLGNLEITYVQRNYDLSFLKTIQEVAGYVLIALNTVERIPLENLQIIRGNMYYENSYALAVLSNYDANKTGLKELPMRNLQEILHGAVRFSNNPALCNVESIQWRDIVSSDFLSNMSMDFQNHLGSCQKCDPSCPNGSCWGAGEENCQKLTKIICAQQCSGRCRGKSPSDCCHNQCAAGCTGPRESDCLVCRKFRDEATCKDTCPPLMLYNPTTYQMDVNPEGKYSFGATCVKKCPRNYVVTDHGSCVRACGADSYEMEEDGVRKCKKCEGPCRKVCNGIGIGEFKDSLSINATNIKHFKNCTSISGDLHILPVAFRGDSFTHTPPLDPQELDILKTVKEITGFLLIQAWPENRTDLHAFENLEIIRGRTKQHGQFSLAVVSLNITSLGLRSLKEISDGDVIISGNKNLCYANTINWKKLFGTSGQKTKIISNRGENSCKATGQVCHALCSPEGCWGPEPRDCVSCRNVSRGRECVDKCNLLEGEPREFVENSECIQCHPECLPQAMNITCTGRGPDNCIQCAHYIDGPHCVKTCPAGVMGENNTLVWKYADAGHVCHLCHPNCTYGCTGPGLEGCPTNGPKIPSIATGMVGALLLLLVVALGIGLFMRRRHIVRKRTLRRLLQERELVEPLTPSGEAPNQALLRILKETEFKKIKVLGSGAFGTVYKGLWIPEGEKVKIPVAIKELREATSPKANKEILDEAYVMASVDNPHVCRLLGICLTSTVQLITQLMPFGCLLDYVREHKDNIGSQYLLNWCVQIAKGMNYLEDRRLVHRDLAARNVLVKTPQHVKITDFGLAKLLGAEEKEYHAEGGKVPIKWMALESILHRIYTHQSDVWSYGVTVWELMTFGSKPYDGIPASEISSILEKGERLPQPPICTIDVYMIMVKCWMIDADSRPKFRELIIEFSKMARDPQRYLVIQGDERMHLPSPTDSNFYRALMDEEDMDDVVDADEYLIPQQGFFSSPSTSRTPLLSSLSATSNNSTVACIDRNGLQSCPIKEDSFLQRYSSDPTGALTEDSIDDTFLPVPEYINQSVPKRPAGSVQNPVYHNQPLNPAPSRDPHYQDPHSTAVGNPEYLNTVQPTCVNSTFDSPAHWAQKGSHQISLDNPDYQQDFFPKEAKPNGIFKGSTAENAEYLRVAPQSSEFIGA

Consider `CC(C)(C)OC(=O)/C(C#N)=C/c1ccsc1[N+](=O)[O-]`, for which the IC50 at EGFR (human) [1] came out at 9 µM.

Turning to `N#CC(C#N)=C(N)/C(C#N)=C/c1csc([N+](=O)[O-])c1`, the 50% inhibitory concentration (IC50) is over 100 µM against EGFR (human) [2]; 7 µM on EGFR (human) [1]; over 100 µM against EGFR (human) [3]; over 100 µM on EGFR (human) [4]; over 100 µM against EGFR (human) [5].

`N#C/C(=C\c1csc([N+](=O)[O-])c1)C(N)=S` showed an IC50 on EGFR (human) [1] of 10.5 µM.

Take `N#C/C(=C\c1cc([N+](=O)[O-])cs1)C(N)=O`: the half-maximal inhibitory concentration (IC50) against EGFR (human) [1] was determined as 47 µM.

In the case of `N#C/C(=C\c1ccc([N+](=O)[O-])s1)C(N)=S`, the IC50 is 66.9 µM at EGFR (human) [2]; 37.5 µM on EGFR (human) [1]; 71.6 µM against EGFR (human) [3]; 82.1 µM against EGFR (human) [4]; 82.9 µM on EGFR (human) [5].

For the compound `N#C/C(=C\c1ccc([N+](=O)[O-])s1)C(N)=O`, the IC50 against EGFR (human) [1] was over 500 µM.

The compound `N#C/C(=C\c1csc([N+](=O)[O-])c1)C(=O)O` yielded an IC50 against EGFR (human) [1] of over 500 µM.

The compound `CCCCOC(=O)/C(C#N)=C/c1ccsc1[N+](=O)[O-]` registered an IC50 against EGFR (human) [1] of over 500 µM.

For the compound `N#CC(C#N)=C(N)/C(C#N)=C/c1ccsc1[N+](=O)[O-]`, the IC50 on EGFR (human) [2] was 5.1 µM; at EGFR (human) [1] it was 14.6 µM; against EGFR (human) [3], 4.73 µM; at EGFR (human) [4] it was 7.8 µM; against EGFR (human) [5] it was 4.7 µM.

The compound `N#CC(C#N)=Cc1ccsc1[N+](=O)[O-]` showed an IC50 on EGFR (human) [1] of 15.3 µM.

Consider `CCCCOC(=O)/C(C#N)=C/c1ccc([N+](=O)[O-])s1`, for which, on EGFR (human) [1], the half-inhibitory concentration (IC50) was over 500 µM.

Turning to `CCOC(=O)/C(C#N)=C/c1ccsc1[N+](=O)[O-]`, at EGFR (human) [1], the IC50 is 100 µM.

In the case of `COC(=O)/C(C#N)=C/c1cc([N+](=O)[O-])cs1`, the IC50 against EGFR (human) [1] stood at 18 µM.

`CCCCOC(=O)/C(C#N)=C/c1cc([N+](=O)[O-])cs1`: the IC50 at EGFR (human) [1] was over 500 µM.

On EGFR (human) [1], `N#C/C(=C\c1csc([N+](=O)[O-])c1)C(N)=O` gave an IC50 of over 500 µM.

Consider `N#C/C(=C\c1ccc([N+](=O)[O-])s1)C(=O)O`, for which, on EGFR (human) [1], the IC50 was 150 µM and > 500 µM.

In the case of `N#C/C(=C\c1ccsc1[N+](=O)[O-])C(N)=O`, the half-maximal inhibitory concentration (IC50) against EGFR (human) [1] turned out to be 400 µM.

At EGFR (human) [1], `N#CC(C#N)=Cc1cc([N+](=O)[O-])cs1` showed an IC50 of 2 µM.

`COC(=O)/C(C#N)=C/c1csc([N+](=O)[O-])c1`: at EGFR (human) [1], the IC50 is over 500 µM.

For `N#CC(C#N)=Cc1ccc([N+](=O)[O-])s1`, the IC50 came out at 20.7 µM against EGFR (human) [2]; 50 µM against EGFR (human) [1]; 28 µM at EGFR (human) [3]; 25.4 µM on EGFR (human) [4]; 25.8 µM against EGFR (human) [5].

As to `CC(C)(C)OC(=O)/C(C#N)=C/c1ccc([N+](=O)[O-])s1`, on EGFR (human) [1], the IC50 worked out at 75 µM.

For `N#C/C(=C\c1cc([N+](=O)[O-])cs1)C(N)=S`, on EGFR (human) [1], the half-inhibitory concentration (IC50) was over 500 µM.

On to `CCOC(=O)/C(C#N)=C/c1cc([N+](=O)[O-])cs1`, for which the IC50 against EGFR (human) [1] is over 500 µM.

On EGFR (human) [1], `COC(=O)/C(C#N)=C/c1ccc([N+](=O)[O-])s1` gave an IC50 of over 500 µM.

In the case of `N#C/C(=C\c1ccsc1[N+](=O)[O-])C(N)=S`, the IC50 at EGFR (human) [2] turned out to be 0.27 µM; against EGFR (human) [1], 22.6 µM; against EGFR (human) [3], 0.11 µM; on EGFR (human) [4], 0.35 µM; on EGFR (human) [5] it was 0.32 µM.

As to `CCOC(=O)/C(C#N)=C/c1csc([N+](=O)[O-])c1`, the IC50 was over 100 µM at EGFR (human) [2]; 9 µM on EGFR (human) [1]; over 100 µM at EGFR (human) [3]; over 100 µM on EGFR (human) [4]; over 100 µM on EGFR (human) [5].

Compound `N#CC(C#N)=C(N)/C(C#N)=C/c1cc([N+](=O)[O-])cs1` showed an IC50 against EGFR (human) [1] of 160 µM.

Compound `CC(C)(C)OC(=O)/C(C#N)=C/c1csc([N+](=O)[O-])c1` showed an IC50 on EGFR (human) [1] of 150 µM.

The compound `COC(=O)/C(C#N)=C/c1ccsc1[N+](=O)[O-]` displayed a 50% inhibitory concentration (IC50) on EGFR (human) [1] of 50 µM.

On EGFR (human) [1], `CCCCOC(=O)/C(C#N)=C/c1csc([N+](=O)[O-])c1` showed a half-maximal inhibitory concentration (IC50) of over 500 µM.

The record behind these values is the Kinase Knowledgebase extract (Sharma et al. 2016).
